# Earlier results in US7273620B1, “Triggered release of liposomal drugs following mixing of cationic and anionic liposomes” (University of British Columbia, priority 2002, dated 2007).
# Conditions: from LUV; depends on acyl chain length of ceramide anchor
substance,measurement,value
1-O-(2′-(ω-methoxypolyethylene-glycol)succinoyl)-2-N-myristoylsphyngosine [PEG-CerC14],dissociation rate of PEG-Ceramide,1.2 h
